Literature values as cited in patent US20130251696A1, “Antioxidant Composition for Reducing Oxidative Stress Ascribable to the Treatment with Hormonal Contraceptive Drugs” (COR.CON. INTERNATIONAL S.R.L., priority 2010, published 2013).

Conditions: principal organs (heart, brain, liver, uterus etc.)

tissue levels as % of blood levels: 8-10%
Structure (SMILES): O=C(O[C@@H]1Cc2c(O)cc(O)cc2O[C@@H]1c1cc(O)c(O)c(O)c1)c1cc(O)c(O)c(O)c1 [EGCG, epigallocatechin gallate]
